Source: ChEMBL document CHEMBL4665764, “Synthesis and Biological Evaluation of Celastrol Derivatives as Potential Immunosuppressive Agents” (J Nat Prod, 2020)
Calls of active or inactive are those of the source. No cut-off for these calls is given here.

Tests used:
[1] = Induction of apoptosis in Con A-induced BALB/c mouse T cell assessed as late apoptotic cells at 0.01 uM after 48 hrs by Annexin V-FITC/propidium iodide staining based FACS assay (reference value: 7.3%); type: functional, T cell line
[2] = Anti-inflammatory activity in BALB/c mouse T cell assessed as assessed as IL-4 level at 0.1 uM after 48 hrs by ELISA (reference value: 167.8 +/- 9.4 pg/ml); type: functional, T cell line
[3] = Induction of apoptosis in Con A-induced BALB/c mouse T cell assessed as necrotic cells at 0.01 uM after 48 hrs by Annexin V-FITC/propidium iodide staining based FACS assay (reference value: 2.9%); type: functional, T cell line
[4] = Antiproliferative activity against Con A-induced BALB/c mouse T cell after 48 hrs by CCK8 assay; type: functional, tissue-based, T cell line
[5] = Anti-inflammatory activity in BALB/c mouse T cell assessed as assessed as IL-4 level at 0.01 uM after 48 hrs by ELISA (reference value: 167.8 +/- 9.4 pg/ml); type: functional, T cell line
[6] = Anti-inflammatory activity in BALB/c mouse T cell assessed as assessed as IL-2 level at 0.01 uM after 48 hrs by ELISA (reference value: 152.9 +/- 8.7 pg/ml); type: functional, T cell line
[7] = Anti-inflammatory activity in BALB/c mouse T cell assessed as assessed as TNF-alpha level at 0.1 uM after 48 hrs by ELISA (reference value: 375.8 +/- 19.6 pg/ml); type: functional, T cell line
[8] = molecular target: T1, Tyrosine-protein kinase ZAP-70 (Mus musculus) (UniProt P43404); experiment: Inhibition of ZAP70 phosphorylation in Con-A induced BALB/c mouse T cell by Western blot analysis; type: tissue-based; conditions: T cell line
T1 sequence (whole entry): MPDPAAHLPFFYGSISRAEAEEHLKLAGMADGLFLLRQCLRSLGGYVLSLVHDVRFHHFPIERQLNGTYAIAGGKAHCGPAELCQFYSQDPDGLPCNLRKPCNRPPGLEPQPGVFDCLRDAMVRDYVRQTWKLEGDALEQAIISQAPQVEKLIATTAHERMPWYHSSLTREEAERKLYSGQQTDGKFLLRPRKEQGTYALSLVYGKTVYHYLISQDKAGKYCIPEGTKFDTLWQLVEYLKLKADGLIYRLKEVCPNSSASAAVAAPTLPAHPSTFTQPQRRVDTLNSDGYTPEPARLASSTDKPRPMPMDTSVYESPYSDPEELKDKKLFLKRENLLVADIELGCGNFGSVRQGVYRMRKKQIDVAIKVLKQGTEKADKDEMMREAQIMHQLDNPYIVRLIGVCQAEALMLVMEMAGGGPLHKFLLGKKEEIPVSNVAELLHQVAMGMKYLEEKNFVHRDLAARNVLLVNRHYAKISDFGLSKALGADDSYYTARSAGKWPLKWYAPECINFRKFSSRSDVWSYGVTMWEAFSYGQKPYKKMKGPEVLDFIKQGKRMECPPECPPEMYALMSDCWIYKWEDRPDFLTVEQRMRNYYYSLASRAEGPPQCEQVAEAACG

T cell line [9] = experiment: Induction of apoptosis in BALB/c mouse T cell assessed as increase in Bax at >=1 uM by Western blot analysis; type: functional; conditions: dose microM >=1
[10] = Cytotoxicity against BALB/c mouse T cell assessed as reduction in cell viability after 48 hrs by CCK8 assay; type: tissue-based, T cell line; conditions: BALB/c mouse T cells
T cell line [11] = experiment: Induction of mitochondrial membrane disruption in BALB/c mouse T cell assessed as increase in cytochrome c release from mitochondria to cytosol at >=1 uM by Western blot analysis; type: functional; conditions: dose microM >=1
[12] = Induction of apoptosis in Con A-induced BALB/c mouse T cell assessed as viable cells at 1 uM after 48 hrs by Annexin V-FITC/propidium iodide staining based FACS assay (reference value: 63.3%); type: functional, T cell line
T cell line [13] = experiment: Induction of apoptosis in BALB/c mouse T cell assessed as increase in Bcl2 at >=1 uM by Western blot analysis; type: functional; conditions: dose microM >=1
[14] = Anti-inflammatory activity in BALB/c mouse T cell assessed as assessed as TNF-alpha level at 0.01 uM after 48 hrs by ELISA (reference value: 375.8 +/- 19.6 pg/ml); type: functional, T cell line
T cell line [15] = experiment: Induction of apoptosis in BALB/c mouse T cell assessed as assessed as increase in caspase 9 >=1 uM; type: functional, tissue-based; conditions: dose microM >=1
[16] = Anti-inflammatory activity in BALB/c mouse T cell assessed as assessed as TNF-alpha level at 1 uM after 48 hrs by ELISA (reference value: 375.8 +/- 19.6 pg/ml); type: functional, T cell line
[17] = Anti-inflammatory activity in BALB/c mouse T cell assessed as assessed as IL-4 level at 1 uM after 48 hrs by ELISA (reference value: 167.8 +/- 9.4 pg/ml); type: functional, T cell line
[18] = Induction of apoptosis in Con A-induced BALB/c mouse T cell assessed as early apoptotic cells at 0.01 uM after 48 hrs by Annexin V-FITC/propidium iodide staining based FACS assay (reference value: 26.5%); type: functional, T cell line
[19] = Induction of apoptosis in Con A-induced BALB/c mouse T cell assessed as necrotic cells at 0.1 uM after 48 hrs by Annexin V-FITC/propidium iodide staining based FACS assay (reference value: 2.9%); type: functional, T cell line
[20] = Induction of apoptosis in Con A-induced BALB/c mouse T cell assessed as late apoptotic cells at 1 uM after 48 hrs by Annexin V-FITC/propidium iodide staining based FACS assay (reference value: 7.3%); type: functional, T cell line
[21] = Anti-inflammatory activity in BALB/c mouse T cell assessed as assessed as IL-2 level at 1 uM after 48 hrs by ELISA (reference value: 152.9 +/- 8.7 pg/ml); type: functional, T cell line
[22] = Induction of apoptosis in Con A-induced BALB/c mouse T cell assessed as viable cells at 0.1 uM after 48 hrs by Annexin V-FITC/propidium iodide staining based FACS assay (reference value: 63.3%); type: functional, T cell line
[23] = molecular target: Proto-oncogene tyrosine-protein kinase LCK (Mus musculus) (UniProt P06240); experiment: Inhibition of LCK phosphorylation in Con-A induced BALB/c mouse T cell by Western blot analysis; type: tissue-based; conditions: T cell line
[24] = Induction of apoptosis in Con A-induced BALB/c mouse T cell assessed as viable cells at 0.01 uM after 48 hrs by Annexin V-FITC/propidium iodide staining based FACS assay (reference value: 63.3%); type: functional, T cell line
T cell line [25] = experiment: Induction of apoptosis in BALB/c mouse T cell assessed as assessed as increase in caspase 3 >=1 uM; type: functional, tissue-based; conditions: dose microM >=1
[26] = Selectivity index, ratio of CC50 for cytotoxicity against BALB/c mouse T cell to IC50 for antiproliferative activity against Con A-induced BALB/c mouse T cell; parameters: species or system T cell line
[27] = Induction of apoptosis in Con A-induced BALB/c mouse T cell assessed as early apoptotic cells at 0.1 uM after 48 hrs by Annexin V-FITC/propidium iodide staining based FACS assay (reference value: 26.5%); type: functional, T cell line
[28] = Induction of apoptosis in Con A-induced BALB/c mouse T cell assessed as necrotic cells at 1 uM after 48 hrs by Annexin V-FITC/propidium iodide staining based FACS assay (reference value: 2.9%); type: functional, T cell line
[29] = Induction of apoptosis in Con A-induced BALB/c mouse T cell assessed as early apoptotic cells at 1 uM after 48 hrs by Annexin V-FITC/propidium iodide staining based FACS assay (reference value: 26.5%); type: functional, T cell line
[30] = Induction of apoptosis in Con A-induced BALB/c mouse T cell assessed as late apoptotic cells at 0.1 uM after 48 hrs by Annexin V-FITC/propidium iodide staining based FACS assay (reference value: 7.3%); type: functional, T cell line
[31] = Anti-inflammatory activity in BALB/c mouse T cell assessed as assessed as IL-2 level at 0.1 uM after 48 hrs by ELISA (reference value: 152.9 +/- 8.7 pg/ml); type: functional, T cell line

Chain of Proto-oncogene tyrosine-protein kinase LCK (Mus musculus) (P06240 2-509 limits assumed): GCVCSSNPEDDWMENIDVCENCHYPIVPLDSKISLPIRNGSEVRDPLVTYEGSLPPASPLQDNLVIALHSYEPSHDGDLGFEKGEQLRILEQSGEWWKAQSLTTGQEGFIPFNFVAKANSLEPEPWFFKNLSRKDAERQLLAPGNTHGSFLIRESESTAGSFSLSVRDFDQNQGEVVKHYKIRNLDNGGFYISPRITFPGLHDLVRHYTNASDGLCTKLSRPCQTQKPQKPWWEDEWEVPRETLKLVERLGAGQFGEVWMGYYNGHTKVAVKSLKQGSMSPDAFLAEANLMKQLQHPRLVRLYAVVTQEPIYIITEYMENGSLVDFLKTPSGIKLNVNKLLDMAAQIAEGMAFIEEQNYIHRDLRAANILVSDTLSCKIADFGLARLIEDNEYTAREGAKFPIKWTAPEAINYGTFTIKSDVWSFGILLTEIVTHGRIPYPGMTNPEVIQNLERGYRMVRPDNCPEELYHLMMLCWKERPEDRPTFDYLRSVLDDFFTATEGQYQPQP

## CNC(=O)[C@]1(C)CC[C@]2(C)CC[C@]3(C)C4=CC=C5C(=CC(=O)C(O)=C5C)[C@]4(C)CC[C@@]3(C)[C@@H]2C1
[1]
  Activity: 7%
[2]
  Activity: 78.2 pg/mL
[3]
  Activity: 1.7%
[4]
  IC50: 25 nM
[5]
  Activity: 135.2 pg/mL
[6]
  Activity: 128.7 pg/mL
[7]
  Activity: 204.1 pg/mL
[8]
  inhibition: Dose-dependent effect
T cell line [9]
  Activity: Active
[10]
  CC50 at 48 h: 1200 nM
T cell line [11]
  Activity: Active
[12]
  Activity: 34.5%
T cell line [13]
  Activity: Active
[14]
  Activity: 264.5 pg/mL
T cell line [15]
  Activity: Active
[16]
  Activity: 142.9 pg/mL
[17]
  Activity: 39.1 pg/mL
[18]
  Activity: 27.9%
[19]
  Activity: 0.5%
[20]
  Activity: 8.5%
[21]
  Activity: 51.1 pg/mL
[22]
  Activity: 46.3%
[23]
  inhibition: Dose-dependent effect
[24]
  Activity: 63.4%
T cell line [25]
  Activity: Active
[26]
  Ratio CC50/IC50: 47.7
[27]
  Activity: 43.6%
[28]
  Activity: 1%
[29]
  Activity: 56%
[30]
  Activity: 9.5%
[31]
  Activity: 79.1 pg/mL
